T/C data for 21 compounds are collected here from PubChem BioAssay AID248 (DTP/NCI, 2004).

Several values for one entry are separate records, joined by “and”; a condition that tells them apart may be missing. Equal values may be shown once. Toxic doses and inconclusive results are not listed.

For the assay, the system named is L1210 leukemia ip in BDF1 mice, survival T/C. Kind of assay: NCI In Vivo Anticancer Drug Screen. Data for tumor model L1210 Leukemia (intraperitoneal) in B6D2F1 (BDF1) mice. The settings on record: endpoint: mean survival time, higher = longer survival. The method in brief:
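Tumor cells were implanted, animals were treated, and survival was followed. The result divides the treated measurement by the vehicle-control measurement.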

Where [1] appears, read: dose: 25.0 mg/kg/injection, schedule: Q04DX003 (ip), vehicle: saline with Tween-80.
The mark [2] stands for this setting: dose: 100.0 mg/kg/injection, schedule: Q04DX003 (ip), vehicle: saline.
Where [3] appears, read: dose: 100.0 mg/kg/injection, schedule: Q04DX003 (ip), vehicle: saline with Tween-80.
[4] abbreviates: dose: 100.0 mg/kg/injection, schedule: Q01DX001 (ip), vehicle: saline.
Setting [5] is: dose: 200.0 mg/kg/injection, schedule: Q01DX001 (ip), vehicle: saline.
Setting [6] is: dose: 400.0 mg/kg/injection, schedule: Q01DX001 (ip), vehicle: saline.
The mark [7] stands for this setting: dose: 100.0 mg/kg/injection, schedule: Q01DX001 (ip), vehicle: carboxymethylcellulose (CMC).
Setting [8] is: dose: 200.0 mg/kg/injection, schedule: Q01DX001 (ip), vehicle: carboxymethylcellulose (CMC).
[9] abbreviates: dose: 400.0 mg/kg/injection, schedule: Q01DX001 (ip), vehicle: carboxymethylcellulose (CMC).
Where [10] appears, read: dose: 200.0 mg/kg/injection, schedule: Q04DX003 (ip), vehicle: saline.
Setting [11] is: dose: 400.0 mg/kg/injection, schedule: Q04DX003 (ip), vehicle: saline.
Setting [12] is: dose: 50.0 mg/kg/injection, schedule: Q01DX001 (ip), vehicle: saline.
The mark [13] stands for this setting: dose: 100.0 mg/kg/injection, schedule: Q04DX003 (ip), vehicle: Klucel (hydroxypropylcellulose) (HPC).
Where [14] appears, read: dose: 200.0 mg/kg/injection, schedule: Q04DX003 (ip), vehicle: Klucel (hydroxypropylcellulose) (HPC).
The mark [15] stands for this setting: dose: 50.0 mg/kg/injection, schedule: Q01DX001 (ip), vehicle: carboxymethylcellulose (CMC).
Where [16] appears, read: dose: 75.0 mg/kg/injection, schedule: Q01DX001 (ip), vehicle: other.
The mark [17] stands for this setting: dose: 150.0 mg/kg/injection, schedule: Q01DX001 (ip), vehicle: other.
[18] abbreviates: dose: 300.0 mg/kg/injection, schedule: Q01DX001 (ip), vehicle: other.

For the compound `O=C1C=CC(=C(Br)Br)O1`, the T/C reads like this: (dose: 12.5 mg/kg/injection, schedule: Q04DX003 (ip), vehicle: saline with Tween-80) 92 % of control; (dose: 12.5 mg/kg/injection, schedule: Q04DX003 (ip), vehicle: saline) 97 % of control; under setting [1], 103 % of control; (dose: 25.0 mg/kg/injection, schedule: Q04DX003 (ip), vehicle: saline) 95 % of control; (dose: 50.0 mg/kg/injection, schedule: Q04DX003 (ip), vehicle: saline) 92 % of control; under setting [2], 98 % of control.

In the case of `CC(=O)Oc1cc(C(c2ccccc2)c2ccccc2)ccc1N(C(C)=O)S(=O)(=O)c1ccccc1`, the T/C runs as follows: under setting [3], 92 % of control; (dose: 200.0 mg/kg/injection, schedule: Q04DX003 (ip), vehicle: saline with Tween-80) 88 % of control; (dose: 400.0 mg/kg/injection, schedule: Q04DX003 (ip), vehicle: saline with Tween-80) 92 % of control.

With `Nc1nc(N)c(N=O)c(Nc2ccc(Br)cc2)n1`, the T/C was 108 % of control (dose: 60.0 mg/kg/injection, schedule: Q01DX Z (ip), vehicle: methylcellulose (MC)) and 103 % of control (dose: 120.0 mg/kg/injection, schedule: Q01DX Z (ip), vehicle: methylcellulose (MC)).

In the case of `CCCCCCCCCC(=O)Nc1c(C)cccc1C`, the T/C by setting is: (dose: 100.0 mg/kg/injection, schedule: Q04DX002 (ip), vehicle: saline with Tween-80) 94 % of control; (dose: 200.0 mg/kg/injection, schedule: Q04DX002 (ip), vehicle: saline with Tween-80) 111 % of control; (dose: 400.0 mg/kg/injection, schedule: Q04DX002 (ip), vehicle: saline with Tween-80) 94 % of control.

Consider `CC(C)[CH2][Sn](=[O])[OH]`, for which the T/C is 96 % of control (dose: 50.0 mg/kg/injection, schedule: Q01DX009 (ip), vehicle: saline); 100 % of control (dose: 100.0 mg/kg/injection, schedule: Q01DX009 (ip), vehicle: saline); 100 % of control (dose: 200.0 mg/kg/injection, schedule: Q01DX009 (ip), vehicle: saline).

Consider `O=C(NCCCl)NC1C(O)CCCC1O` (stereo not drawn), for which the T/C was 103 % of control under setting [4], 97 % of control under setting [5] and 103 % of control under setting [6].

For `O=C(O)c1ccc(CNc2ccc(C(=O)CCl)cc2)cc1`, the T/C runs as follows: under setting [7], 102 % of control; under setting [8], 102 % of control; under setting [9], 118 % of control.

Consider `CN(C)CCCN1CCC2(CCC(CO)CC2)CC1`, for which the T/C reads like this: under setting [4], 94 % of control; under setting [5], 94 % of control; under setting [6], 102 % of control.

`CCNc1c([N+](=O)[O-])cc(S(=O)(=O)O)cc1[N+](=O)[O-]`: the T/C reads like this: under setting [2], 116 % of control; under setting [10], 105 % of control; under setting [11], 95 % of control.

As to `Nc1ccc(C(O)(C(F)(F)F)C(F)(F)F)c(C(=O)O)c1`, the T/C was 101 % of control (dose: 100.0 mg/kg/injection, schedule: Q04DX003 (ip), vehicle: other); 101 % of control (dose: 200.0 mg/kg/injection, schedule: Q04DX003 (ip), vehicle: other); 101 % of control (dose: 400.0 mg/kg/injection, schedule: Q04DX003 (ip), vehicle: other).

As for `O=C(c1ccccc1)C(Br)S(=O)(=O)C(Br)C(=O)c1ccccc1` (stereo not drawn), the T/C is 107 % of control under setting [2], 107 % of control under setting [10] and 109 % of control under setting [11].

Turning to `COC(=O)C1CC23C=CCN4CC(C2C)C2(c5ccccc5NC12)C43` (stereo not drawn), the T/C by setting is: (dose: 0.03 mg/kg/injection, schedule: Q01DX001 (ip), vehicle: saline) 101 % of control; (dose: 0.06 mg/kg/injection, schedule: Q01DX001 (ip), vehicle: saline) 98 % of control; (dose: 0.13 mg/kg/injection, schedule: Q01DX001 (ip), vehicle: saline) 93 % of control; (dose: 0.25 mg/kg/injection, schedule: Q01DX001 (ip), vehicle: saline) 101 % of control; (dose: 0.5 mg/kg/injection, schedule: Q01DX001 (ip), vehicle: saline) 97 % of control; (dose: 1.0 mg/kg/injection, schedule: Q01DX001 (ip), vehicle: saline) 97 % of control. Moreover, the T/C reads like this: (dose: 2.0 mg/kg/injection, schedule: Q01DX001 (ip), vehicle: saline) 98 % of control; (dose: 25.0 mg/kg/injection, schedule: Q01DX001 (ip), vehicle: saline) 101 % of control; under setting [12], 95 % of control; under setting [4], 101 % of control.

Regarding `S=c1cc[nH]c(=S)[nH]1`, the T/C (dose: 50.0 mg/kg/injection, schedule: Q04DX003 (ip), vehicle: Klucel (hydroxypropylcellulose) (HPC)) is 97 % of control; the T/C under setting [13] is 97 % of control; the T/C under setting [14] is 95 % of control.

As for `CC(CCNc1ccc(NCCC(C)CC(C)(C)C)cc1)CC(C)(C)C` (stereo not drawn), the T/C (dose: 100.0 mg/kg/injection, schedule: Q01DX009 (ip), vehicle: Klucel (hydroxypropylcellulose) (HPC)) is 98 % of control; the T/C under setting [13] was 110 % of control; the T/C (dose: 200.0 mg/kg/injection, schedule: Q01DX009 (ip), vehicle: Klucel (hydroxypropylcellulose) (HPC)) is 101 % of control; the T/C under setting [14] is 102 % of control; the T/C (dose: 400.0 mg/kg/injection, schedule: Q04DX003 (ip), vehicle: Klucel (hydroxypropylcellulose) (HPC)) was 96 % of control.

For `O=S(=O)(O)c1cc(O)c2ccc(NNC(O)c3ccc(Cl)c(Cl)c3)cc2c1` (stereo not drawn), the T/C runs as follows: under setting [2], 87 % of control; under setting [10], 96 % of control; under setting [11], 98 % of control.

Take `COC1=C(NCCc2ccccc2)C(=O)C(OC)=C(NCCc2ccccc2)C1=O`: the T/C was 96 % of control under setting [15], 94 % of control under setting [7], 89 % of control under setting [8] and 89 % of control under setting [9].

Consider `OC(CI)C(O)CI` (stereo not drawn), for which the T/C was 104 % of control under setting [16]; 106 % of control and 86 % of control under setting [17]; 101 % of control under setting [18].

Consider `O=C(NC(c1ccccc1)c1ccccc1)c1ccccc1`, for which the T/C reads like this: (dose: 25.0 mg/kg/injection, schedule: Q01DX009 (ip), vehicle: saline with Tween-80) 88 % of control; under setting [1], 97 % of control; under setting [12], 97 % of control; (dose: 50.0 mg/kg/injection, schedule: Q01DX009 (ip), vehicle: saline with Tween-80) 88 % of control; (dose: 50.0 mg/kg/injection, schedule: Q04DX003 (ip), vehicle: saline with Tween-80) 94 % of control; under setting [4], 91 % of control. Further, the T/C is 88 % of control (dose: 100.0 mg/kg/injection, schedule: Q01DX009 (ip), vehicle: saline with Tween-80) and 89 % of control under setting [3].

On to `Nn1cnc2c(SCc3ccccc3)ncnc21`, for which the T/C was 101 % of control under setting [15]; 115 % of control (dose: 62.0 mg/kg/injection, schedule: Q01DX015 (ip), vehicle: carboxymethylcellulose (CMC)); 121 % of control (dose: 93.0 mg/kg/injection, schedule: Q01DX015 (ip), vehicle: carboxymethylcellulose (CMC)); 101 % of control under setting [7]; 158 % of control (dose: 140.0 mg/kg/injection, schedule: Q01DX015 (ip), vehicle: carboxymethylcellulose (CMC)); 122 % of control under setting [8].

For the compound `c1ccc(-c2cnc3nc4ccccc4nc3n2)cc1`, the T/C reads like this: under setting [16], 87 % of control; under setting [17], 91 % of control; under setting [18], 97 % of control.

Consider `COc1ccc2c(C(=O)O)c(C(=O)c3ccccc3)ccc2c1OC`, for which the T/C is, setting by setting: (dose: 100.0 mg/kg/injection, schedule: Q01DX001 (ip), vehicle: gum acacia) 98 % of control; (dose: 200.0 mg/kg/injection, schedule: Q01DX001 (ip), vehicle: gum acacia) 98 % of control; (dose: 400.0 mg/kg/injection, schedule: Q01DX001 (ip), vehicle: gum acacia) 94 % of control.
